These molecules were tested on T1, RXRα (assay: Differential scanning fluorimetry (DSF) screen on RXRα). Details: 500 μM fragment, mean of duplicates.
T1 construct: MBP (N, cleaved yes); poly-N-tag, His8-tag, TEV site (N, cleaved yes); made in house; host or cells: E. coli T7-express with pGro7 (GroEL/ES)
Format: binding
Description: For the primary screen of this fragment library, we employed differential scanning fluorimetry (DSF, also known as thermal shift). DSF is generally applicable to a large panel of protein targets and provides a robust, low‐cost screening technology for fragment‐based approaches. ^[20] All five proteins of our interest are soluble and were recombinantly expressed in Escherichia coli. We performed an initial fragment screen on all five targets by DSF. The use of a uniform screening method for all targets ensured consistent data and provided the opportunity to identify false positive hits which interfered with the screening technology. The conditions of the DSF assay were optimized for the desired screening and validated with reference compounds (Table S1 in the Supporting Information). Compounds causing a positive thermal shift ΔT m≥1.0 °C were considered as active.
DSF measurement of the PDFL (single concentration of 500 μM, duplicates, 96‐well format) on the five proteins retrieved 19 fragment hits on sEH, 28 on LTA4H, 12 on 5‐LOX, 16 on RXRα, and 14 on FXR, respectively. Melting point distributions of the screening library for all five targets are depicted in Figure 2. Amongst the hits, three compounds (Table S2) gave a positive signal on all five proteins likely qualifying them as pan assay interference compounds (PAINS). ^[21] Fragments binding to multiple targets (Scheme 1) were identified for seven out of ten target combinations (Figure 2, Table 1). Among them, fragments 4, 6, 7, and 9 match previously identified privileged scaffolds for fatty acid mimetics. ^[14] […] Active ligands containing N‐phenylbenzamide 6 and the N‐phenylbenzylamine 7 have been described for four of the protein targets. Furthermore, indole, which has been characterized as a privileged heterocycle for fatty acid mimetics, ^[14] is present in fragments 5 and 10. Dual 5‐LOX/RXR ligand 1 was present in 5‐LOX inhibitors, while dual FXR/LTA4H modulator 3 is found among known FXR ligands. Fragments 2 (sEH/5‐LOX) and 8 (LTA4H/RXR) are novel scaffolds not appearing in known ligands of any of the five targets.
Figure S3: SDS page of the purified proteins (proteins RXRα and FXR after TEV cleavage) using a 14% polyacrylamide gel, which was stained with coomassi. Precision Plus Protein™ Unstained Protein Standard s (Bio-Rad Laboratories, Inc. ) was used […]
All experiments were performed as duplicates using MicroAmp fast 96 -well plates. Each plate contained 80 different compound wells and 16 DMSO control wells. First 0.8 µl of a 25 mM Preswick Library Fragment dilution in DMSO or pure DMSO were placed in each of the well (final concentration 500 µM). Then 39.2 µl of the master mi x (containing protein, Triton x -100, SYPRO® Orange Protein Gel Stain and buffer that corresponds to the tested protein) were added.
Table S4: Final concentrations in DSF experiments: […]
The measurements were performed using a iCycler iQ™ Single -Color Real Time PCR device with a heat rate of 1 °C per min, an excitation wavelength of 490 nm and an emission wavelength of 570 nm. The first derivation calculated by MyiQ Op tical Software 1.0 was analyzed using Microsoft Office Excel 2013 by comparing the maxima. A shift of 1 °C (in case of 5 -LOX 0.9°C) or more compared to the DMSO control were assumed as potentially binding of the fragment.
(1 picture or pasted object on this page, not shown here)

| Structure (SMILES) | DSF/ΔT m RXRα |
| --- | --- |
| c1ccc(N2CCNCC2)nc1 [Compound 1] | 1.1±0.0 °C |
| Cc1cc(=O)n(-c2ccc(C)c(C)c2)[nH]1 [Compound 2] | −9.5±24.0 °C |
| CCCCOc1cc(C(=O)OC)ccc1N [Compound 3] | −2.9±0.0 °C |
| Oc1ccc(Cc2ccccc2)cc1 [Compound 4] | −2.4±0.7 °C |
| Oc1ccc2cc[nH]c2c1 [Compound 5] | 0.8±0.7 °C |
| Cc1ccccc1C(=O)Nc1ccccc1 [Compound 6] | −1.0±0.7 °C |
| CCN(Cc1ccccc1)c1ccccc1 [Compound 7] | −0.4±0.7 °C |
| Oc1ccc(-c2ccc(F)cc2F)cc1 [Compound 9] | 2.3±0.0 °C |
| Fc1ccc(-c2c[nH]c3ccccc23)cc1 [Compound 10] | 1.9±0.0 °C |

Reference: PMC8049054, “Systematic Assessment of Fragment Identification for Multitarget Drug Design” (Chemmedchem, 2021)
